Tests used:
[1] = target: KPC-2 (Klebsiella pneumoniae, UniProt Q9F663); conditions: read-out: IC50 β-lactamase KPC-2; class (A); nitrocefin 200 μM, 30-min pre-incubation, enzyme 1 nM
[2] = system: K. pneumoniae BAA-1898; assay: MIC of compound alone, broth microdilution; type: cell-based; conditions: strain BAA-1898: K. pneumoniae; TEM-1, SHV-11, SHV-12, KPC-2
Method in brief: (§1)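 Log-phase bacteria were diluted to a final 5×10^5 cfu/mL in cation-adjusted Mueller-Hinton broth and incubated 16-20 h at 35° C in ambient air. MIC was taken as the lowest concentration preventing growth, judged visually.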

[3] = system: P. aeruginosa CIP107051; assay: MIC of compound alone, broth microdilution; type: cell-based; conditions: strain CIP107051: P. aeruginosa; TEM-24
Method in brief: as §1

[4] = system: E. cloacae UFR70; assay: MIC of compound alone, broth microdilution; type: cell-based; conditions: strain UFR70: E. cloacae; TEM-1, CTX-M-15, CMY-2, OXA-1, Porin loss
Method in brief: as §1

[5] = system: K. pneumoniae UFR77; assay: MIC of compound alone, broth microdilution; type: cell-based; conditions: strain UFR77: K. pneumoniae; CMY-2
Method in brief: as §1

[6] = system: E. coli UFR32; assay: MIC of compound alone, broth microdilution; type: cell-based; conditions: strain UFR32: E. coli; TEM-1, VEB-1, OXA-10
Method in brief: as §1

[7] = system: E. coli 190317; assay: MIC of compound alone, broth microdilution; type: cell-based; conditions: strain 190317: E. coli; TEM-1, SHV-12, CTX-M-15, OXA-1
Method in brief: as §1

[8] = system: E. coli UFR61O; assay: MIC of compound alone, broth microdilution; type: cell-based; conditions: strain UFR61O: E. coli; TEM-1, KPC-2
Method in brief: as §1

[9] = system: K. pneumoniae 160143; assay: MIC of compound alone, broth microdilution; type: cell-based; conditions: strain 160143: K. pneumoniae; TEM-1, SHV-1, CTX-M-15, KPC-2, OXA-1
Method in brief: as §1

[10] = system: E. cloacae UFR85; assay: MIC of compound alone, broth microdilution; type: cell-based; conditions: strain UFR85: E. cloacae; TEM-1, CTX-M-15, AmpC
Method in brief: as §1

[11] = system: E. coli UFR39; assay: MIC of compound alone, broth microdilution; type: cell-based; conditions: strain UFR39: E. coli; CTX-M-15, NDM-1
Method in brief: as §1

[12] = system: K. oxytoca UFR21; assay: MIC of compound alone, broth microdilution; type: cell-based; conditions: strain UFR21: K. oxytoca; TEM-1, CTX-M-15, OXA-48
Method in brief: as §1

[13] = system: K. pneumoniae 6299; assay: MIC of compound alone, broth microdilution; type: cell-based; conditions: strain 6299: K. pneumoniae; TEM-1, SHV-11, OXA-163
Method in brief: as §1

[14] = system: E. cloacae 260508; assay: MIC of compound alone, broth microdilution; type: cell-based; conditions: strain 260508: E. cloacae; TEM-1, CTX-M-15
Method in brief: as §1

[15] = system: E. coli UFR18; assay: MIC of compound alone, broth microdilution; type: cell-based; conditions: strain UFR18: E. coli; CTX-M-15, OXA-204
Method in brief: as §1

[16] = system: E. coli UFR41; assay: MIC of compound alone, broth microdilution; type: cell-based; conditions: strain UFR41: E. coli; TEM-1, CTX-M-15, CMY-2, OXA-1, NDM-4
Method in brief: as §1

[17] = system: K. pneumoniae UFR68; assay: MIC of compound alone, broth microdilution; type: cell-based; conditions: strain UFR68: K. pneumoniae; TEM-1, SHV-11, CTX-M-15, KPC-3
Method in brief: as §1

[18] = system: K. pneumoniae UFR24; assay: MIC of compound alone, broth microdilution; type: cell-based; conditions: strain UFR24: K. pneumoniae; TEM-1, SHV-2, SHV-11, OXA-1, OXA-48, OXA-47
Method in brief: as §1

[19] = system: E. coli 131119; assay: MIC of compound alone, broth microdilution; type: cell-based; conditions: strain 131119: E. coli; TEM-1, OXA-48
Method in brief: as §1

[20] = system: K. pneumoniae 200047; assay: MIC of compound alone, broth microdilution; type: cell-based; conditions: strain 200047: K. pneumoniae; TEM-1, SHV-32, CTX-M-15, OXA-1
Method in brief: as §1

[21] = system: E. coli UFR74; assay: MIC of compound alone, broth microdilution; type: cell-based; conditions: strain UFR74: E. coli; SHV-1, DHA-1
Method in brief: as §1

[22] = system: E. cloacae P99; assay: MIC of compound alone, broth microdilution; type: cell-based; conditions: strain P99: E. cloacae; AmpC
Method in brief: as §1

[23] = system: E. cloacae UFR51; assay: MIC of compound alone, broth microdilution; type: cell-based; conditions: strain UFR51: E. cloacae; SHV-12, IMP-8
Method in brief: as §1

[24] = target: TEM-1 (Escherichia coli, UniProt P62593); conditions: read-out: IC50 β-lactamase TEM-1; class (A); nitrocefin 200 μM, 30-min pre-incubation, enzyme 0.1 nM
[25] = system: K. pneumoniae UFR77; assay: MIC of ceftazidime (CAZ) at fixed concentration of compound (synergy), broth microdilution; type: cell-based; conditions: MIC of ceftazidime with compound fixed at 4 μg/mL; strain UFR77 (K. pneumoniae)
Method in brief: as §1

Sequence of KPC-2 (Q9F663 25-293, looked up, species assumed): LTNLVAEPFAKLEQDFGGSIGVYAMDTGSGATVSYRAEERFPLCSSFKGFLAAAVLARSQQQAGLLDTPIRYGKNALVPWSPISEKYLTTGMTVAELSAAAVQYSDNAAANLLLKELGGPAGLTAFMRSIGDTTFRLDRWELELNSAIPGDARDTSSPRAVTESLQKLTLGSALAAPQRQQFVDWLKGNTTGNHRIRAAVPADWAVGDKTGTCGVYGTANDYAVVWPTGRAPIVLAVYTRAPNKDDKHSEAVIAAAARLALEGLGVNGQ
Sequence of TEM-1 (P62593 24-286 limits assumed): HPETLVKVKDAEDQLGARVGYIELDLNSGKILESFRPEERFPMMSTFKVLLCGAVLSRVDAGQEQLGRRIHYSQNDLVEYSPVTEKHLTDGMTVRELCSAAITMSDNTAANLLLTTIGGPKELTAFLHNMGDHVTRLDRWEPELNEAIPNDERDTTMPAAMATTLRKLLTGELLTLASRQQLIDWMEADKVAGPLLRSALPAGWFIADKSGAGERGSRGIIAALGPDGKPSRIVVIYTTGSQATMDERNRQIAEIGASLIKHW

O=C1N2CC(n3ccnn3)=CC(C2)N1OS(=O)(=O)[O-].[Na+] (stereo not shown) [Example 2, sodium [7-oxo-3-(triazol-1-yl)-1,6-diazabicyclo[3.2.1]oct-3-en-6-yl]sulfate]
2 µg/mL: MIC compounds of the invention alone [2] | MIC compounds of the invention alone [5] | MIC compounds of the invention alone [9] | MIC compounds of the invention alone [12] | MIC compounds of the invention alone [14] | MIC compounds of the invention alone [16] | MIC compounds of the invention alone [20] | MIC compounds of the invention alone [21] | MIC compounds of the invention alone [23]
4 µg/mL: MIC compounds of the invention alone [8] | MIC compounds of the invention alone [13] | MIC compounds of the invention alone [17] | MIC compounds of the invention alone [18]
4.7 nM: IC50 [1]
<0.25: MIC combination of CAZ and compounds of the invention at 4 μg/mL [25]
>32 µg/mL: MIC compounds of the invention alone [3]
1 µg/mL: MIC compounds of the invention alone [4] | MIC compounds of the invention alone [6] | MIC compounds of the invention alone [7] | MIC compounds of the invention alone [10] | MIC compounds of the invention alone [11] | MIC compounds of the invention alone [15] | MIC compounds of the invention alone [19] | MIC compounds of the invention alone [22]
0.56 nM: IC50 [24]

Reference: patent publication US10722520B2, “Heterocyclic compounds and their use in preventing or treating bacterial infections” (MUTABILIS, priority 2016, dated 2020)
